Results as given in US20220331348A1, “METHOD OF PREPARING PENTACYCLIC TRITERPENOID SAPONINS AND DRUG COMPOSITION” (CHINA PHARMACEUTICAL UNIVERSITY, priority 2019, published 2022).

Key:
AMPK in Huh-7 cells = test: Activation activity on AMPK in Huh-7 cells (Western Blot); type: cell-based; details: 12 h, relative to DMSO = 1
Protocol: The activation activity of a compound on AMPK in Huh-7 cells was detected by using Western Blot.
Cell culture conditions: Huh-7 cells were cultured in an incubator with 5% CO2 at 37° C. in DMEM complete medium (containing 10% fetal calf serum and 1% streptomycin/penicillin).
Antibody: anti-AMPK (CST, 2532S); anti-pAMPK (CST, 2535S).
Western Blot experiment: the influence of the compound on phosphorylation level of the AMPK in the Huh-7 cells was detected: cells with more than 90% cells alive were taken for the experiment. In a 12-well plate, the Huh-7 cells were plated in the plate at 250000 cells per well, the plate was placed in the incubator with 5% CO2 at 37° C. for culture, an original culture medium was discarded after 12 h, a complete medium containing the pentacyclic triterpenoid saponin was added, a final concentration of subject pentacyclic triterpenoid saponin was set to be 10 μM, and an administration time was set to be 12 h. A positive control compound employs AICAR (100 μM), metformin (70 μM) or A-769662 (100 μM). Then proteins were extracted for Western Blot detection.
Experimental result: a Western Blot experimental result was subjected to gray scale scanning, a p-AMPK/AMPK ratio of negative control DMSO was defined as 1, and a p-AMPK/AMPK ratio of the subject compound was a relative ratio of a negative control group. The larger the numerical value was, the stronger the activation activity of the AMPK of the compound was.

[1] = test system: TNBS modeled Crohn's disease model mice; test: 2,4,6-trinitrobenzene sulfonic acid (TNBS) modeled Crohn's disease model mice; type: in vivo, mouse; details: dose not given
Protocol: C57BL/6 male mice with 6-8 weeks old were selected and randomly divided into a control group, a mode group, a treatment group and a positive control group. Expect for the control group, after the mice in the rest groups anesthetized with isoflurane, hoses were carefully inserted into colons of the mice from anuses, and […] of 1.5% 2,4,6-trinitrobenzene sulfonic acid (TNBS) was slowly injected. Before the hoses were pulled out, the mice were placed upside down for 1 min. First intragastric administration was conducted at the day of enema treatment, the mice in the control group and the model group were orally administered with carboxymethyl cellulose sodium as a placebo, the mice in the treatment group were orally administered with the ziyuglycoside II (purchased from Shanghai Boka Chemistry Technology Co., Ltd) (with a dosage of 5 mg/kg), and the mice in the positive drug group were orally administered with 5-aminosalicylic acid as a clinical drug (5-ASA, purchased from Shanghai Sangon Biological Engineering Co., Ltd) (with a dosage of 100 mg/kg). Administration was continuously conducted for 7 days. In the administration process, the states of the mice were observed every day, and weight changes of the mice were recorded.
Differences in weight change of the mice in various groups were compared, from which, ziyuglycoside II has the treatment effect on the 2, 4, 6-trinitrobenzene sulfonic acid (TNBS) modeled Crohn's disease model mice.
The above mice were sacrificed by cervical dislocation at day 8, colon tissues were harvested, lengths of the colon tissues were measured for statistical summary, and differences in colon length of various groups were compared, from which, the ziyuglycoside II has significant treatment effect on the Crohn's disease model mice. […] 10 mg of proximal rectum segments of the colon tissues of the above mice were selected, PBS was added for homogenization, and centrifugation was conducted for taking a supernate. The supernate was subjected to ELISA detection, and protein quantification was conducted for inflammatory factors TNF- and IL-1. […] Myeloperoxidase (MPO) is an enzyme specific to neutrophils, and the amount of the neutrophils in the intestinal tracts may be reflected by detecting the MPO level. 5 mg of proximal rectum segments of the colon tissues of the above mice were selected, PBS was added for homogenization, and the content of the MPO in a homogenate was detected with a MPO kit (purchased from Nanjing Jiancheng Bioengineering Institute). […] Therefore, the ziyuglycoside II is expected to be useful for preparing the drug for preventing or treating the inflammatory bowel diseases such as the Crohn's disease.

[2] = test system: ulcerative colitis model mice induced by DSS; test: Dextran sulphate sodium salt (DSS) induced ulcerative colitis model mice; type: in vivo, mouse; details: DSS-induced mice; dose not given; vs model group
Protocol: C57BL/6 male mice with 6-8 weeks old were selected; a control group was fed with purified water; and a model group, a treatment group and a positive control group were fed with purified water containing 2% dextran sulphate sodium salt (DSS) (36000-50000 M.Wt) for 7 days and then with the purified water for 3 days, and drug intervention was conducted at the same time. The mice in the control group and the model group were orally administered with carboxymethyl cellulose sodium as a placebo, the mice in the treatment group were orally administered with the ziyuglycoside II (purchased from Shanghai Boka Chemistry Technology Co., Ltd) (with a dosage of 5 mg/kg), and the mice in the positive control group were orally administered with 5-aminosalicylic acid as a clinical drug (5-ASA, purchased from Shanghai Sangon Biological Engineering Co., Ltd) (with a dosage of 100 mg/kg). In the administration process, weight changes, feces characters and hematochezia conditions of the mice were observed and recorded every day and were scored, and disease activity indexes were calculated (Disease activity index, DAI).
A scoring rule and a calculation method were as follows: DAT=(weight score+diarrhea score+occult blood score)/3, wherein weight score: 0 (weight gained or unchanged), 1 (weight lost by 1-5%), 2 (weight lost by 6-10%), 3 (weight lost by 11-15%), 4 (weight lost by 15% or above); diarrhea score: 0 (normal feces), 2 (soft feces), 4 (feces sticking anuses or diarrhea); and occult blood score: 0 (negative occult blood), 2 (positive occult blood), and 4 (visible bleeding). Comparing differences in DAI of various groups, it can be known that the ziyuglycoside II has significant prevention and treatment effects on ulcerative colitis of the mice modeled by the dextran sulphate sodium salt (DSS).
The above mice were sacrificed by cervical dislocation at day 11, colon tissues were harvested, lengths of the colon tissues were measured for statistical summary, and differences in colon length of various groups were compared, from which, the ziyuglycoside II has significant prevention and treatment effect on the ulcerative colitis model mice.
Middle segments, with lengths of about 1 cm, of the colon tissues of the above mice were selected, soaked in a formalin solution for fixing overnight, embedded with paraffin and sliced, and the slices were subjected to HE staining. […] Particularly, compared with the positive drug group, the ziyuglycoside II has the advantage of maintaining a thickness of a muscular layer.
10 mg of proximal rectum segments of the colon tissues of the above mice were selected, PBS was added for homogenization, and centrifugation was conducted for taking a supernate. The supernate was subjected to ELISA detection, and protein quantification was conducted for inflammatory factors TNF-α and IL-lb.
10 mg of colon tissues of the above mice were selected for detection of ROS therein.
When the ulcerative colitis occurs, the inflammatory factors may destruct tight junction between intestinal tracts, and destruction of the tight junction enables functions of mucosal barriers to be lost and accelerates development of the diseases. 5 mg of colon tissues of the above mice were selected for qPCR analysis. […] This hints that the ziyuglycoside II further has the efficacy of increasing the expression level of the tight junction and then protecting a structure of each colon. […] Therefore, the ziyuglycoside II is expected to be useful for preparing the drug for preventing or treating the inflammatory bowel diseases such as the ulcerative colitis.

## CC1(C)CC[C@]2(C(=O)O)CC[C@]3(C)C(=CC[C@@H]4[C@@]5(C)CC[C@H](O[C@@H]6O[C@H](CO)[C@@H](O)[C@H](O)[C@H]6O)C(C)(C)C5CC[C@]43C)[C@H]2C1 (stereo partly shown) [(XVI), hederin A2]
AMPK in Huh-7 cells; 10 μM, Western Blot gray scale
  pAMPK/AMPK ratio: 2.05

## reinioside C [(IX)]
[1]
  colon length of the treatment group compared with the control group: nearly no difference
[1]; vs model group
  expression level of inflammatory factor IL-1β: significantly lower than those of the model group
  expression level of inflammatory factor TNF-α: significantly lower than those of the model group
AMPK in Huh-7 cells; 10 μM, Western Blot gray scale
  pAMPK/AMPK ratio: 1.88
[2]
  DAI scores of the treatment group: obviously lower than those of the model group

## CN(C)C(=N)N=C(N)N [Metformin, reference compound]
AMPK in Huh-7 cells; positive control 70 μM
  pAMPK/AMPK ratio: 1.22

## CC1(C)CC[C@]2(C(=O)O)CC[C@]3(C)C(=CC[C@@H]4[C@@]5(C)CC[C@H](O[C@@H]6O[C@H](C(=O)O)[C@@H](O)[C@H](O[C@@H]7OC[C@@H](O)[C@H](O)[C@H]7O)[C@H]6O)C(C)(C)[C@@H]5CC[C@]43C)[C@@H]2C1 [(IV), kochioside Ic]
AMPK in Huh-7 cells; 10 μM, Western Blot gray scale
  pAMPK/AMPK ratio: 1.75

## N#Cc1c(O)c2c(-c3ccc(-c4ccccc4O)cc3)csc2[nH]c1=O [Compound A-769662, A-769662, reference compound]
AMPK in Huh-7 cells; positive control 100 μM
  pAMPK/AMPK ratio: 2.59

## CC1(C)CC[C@]2(C(=O)O)CC[C@]3(C)C(=CCC4[C@@]5(C)CC[C@H](O[C@@H]6O[C@H](C(=O)O)[C@@H](O)[C@H](O)[C@H]6O)C(C)(C)[C@@H]5CC[C@]43C)[C@@H]2C1 (stereo partly shown) [(III), calunduloside E]
AMPK in Huh-7 cells; 10 μM, Western Blot gray scale
  pAMPK/AMPK ratio: 1.54

## NC(=O)c1ncn([C@@H]2O[C@H](CO)[C@@H](O)[C@H]2O)c1N [AICAR, reference compound]
AMPK in Huh-7 cells; positive control 100 μM
  pAMPK/AMPK ratio: 1.47

## CC1(C)CC[C@]2(C(=O)O)CC[C@]3(C)C(=CCC4[C@@]5(C)CC[C@H](O[C@@H]6OC[C@H](O)[C@H](O)[C@H]6O)C(C)(C)[C@@H]5CC[C@]43C)[C@@H]2C1 (stereo partly shown) [(XIV), asperosaponin C]
AMPK in Huh-7 cells; 10 μM, Western Blot gray scale
  pAMPK/AMPK ratio: 2.23

## C[C@@H]1OC(O[C@H]2[C@H](O[C@H]3CC[C@]4(C)[C@H]5CC=C6[C@@H]7CC(C)(C)CC[C@]7(C(=O)O)CC[C@@]6(C)[C@]5(C)CC[C@H]4C3(C)C)OC[C@H](O)[C@@H]2O)[C@H](O)[C@H](O)[C@H]1O (stereo partly drawn) [(XV), β-hederin]
AMPK in Huh-7 cells; 10 μM, Western Blot gray scale
  pAMPK/AMPK ratio: 2.87
